Measured values published in patent publication US20100249165A1, “PDZ DOMAIN MODULATORS” (University of Copenhagen, priority 2007, published 2010).
Entries after “also recorded” stand apart in the source; their conditions may differ. Peptide text beside a SMILES is read from it.

Assays:
PDZ domain of PICK1 = target: T1, PDZ domain of PICK1 (Rattus norvegicus, UniProt Q9EP80); experiment: Fluorescence polarization competition binding to PICK1 (Oregon Green-labeled DAT peptide tracer); conditions: for potency in displacing the fluorescently tagged tracer (in words): unlabeled peptide titrated against fixed PICK1 and labeled DAT peptide; for Ki: competition with DAT13 OrG tracer 40 nM, fixed subsaturating PICK1, 15 min incubation, means of three independent experiments, read-out: Ki (μM) [SE interval]
T1 construct: The entire coding region of rat PICK1 (residues 2-416); GST (N, cleaved yes); made in house; host or cells: E. coli BL21(DE3) pLysS
From the text: (§1) The entire coding region of rat PICK1 (residues 2-416) is amplified from a pCINEO vector by PCR using pfu polymerase according to the instructions by the manufacturer (Stratagene, La Jolla, Calif.). The primers used introduce a 5′ restriction site for MunI and 3′ restriction site for AvrII. The PCR fragment is cleaved with MunI and AvrII and cloned into the reading frame of the pET41a vector (Novagen, Madison, Wis.) producing an N-terminally glutathione-S-transferase (GST) fusion of PICK1. The GST-PICK1 fusion was expressed in E. coli BL21(DE3) pLysS (Novagen). The transformed bacteria are grown to OD600 0.6 and expression of the fusion protein is induced with isopropyl-β-D1-thiogalactopyranoside (105 μM) overnight at 30° C. The bacteria are lysed by freezing and thawing in TBS buffer containing [50 mM Tris pH 7.4, 125 mM NaCl, 1% TX-100, 20 μg/mL DNAse I, 1 mM DTT (Sigma)]. The lysate is cleared by centrifugation (rotor SS-34, 18000 rpm, 48000×g, 30 min). The supernatant is incubated with glutathione-sepharose beads (Amersham Biosciences) under slow rotation for 90 minutes at 4° C. The beads are pelleted at 3500 g for 5 minutes and washed in TBS buffer containing [50 mM Tris pH 7.4, 125 mM NaCl, 0.1% TX-100, 1 mM DTT] by three batch washes. The protein is separated from the GST domain by cleavage with thrombin protease (Novagen) in the above wash buffer at 4° C. overnight. Samples of 10 μl are taken from the protein solution for determination of protein concentration and for analysis by SDS-PAGE. Protein determinations are performed using the BCA Protein Assay Reagent kit (Pierce Biotechnology, Inc, Rockford, Ill.) according to manufactures protocol using bovine serum albumin as standard. Gels are stained with GelCode Blue Stain Reagent (Pierce Biotechnology) in order to inspect size, integrity and purity of the protein (Madsen et al., JBC, 280, 20539-48, 2005).
This assay is used to screen for compounds binding to the PDZ binding groove in PICK1. The assay is based on the predicted decrease in rotational diffusion of a fluorescently labeled peptide upon its binding to a larger protein. The decrease in rotational diffusion upon binding of a fluorescent labeled peptide to PICK1 can be detected as an increase in fluorescence polarization (FP). Binding of a small-molecule compound to the PDZ binding groove can be detected by its ability to displace the fluorescently labeled peptide resulting in a decreased in FP (Madsen et al., JBC, 280, 20539-48, 2005).
To perform the assay, compounds are loaded (10 μl of each) in microtiter-plates (88 compounds per 96 well plate) (Corning) at a concentration of 1 mM in DMSO. To each well is added 90 μl buffer containing Tris base (50 mM), NaCl (125 mM), TX-100 (0.1%), PICK1 (0.45 μM) and fluorescently labeled peptide. This peptide corresponds to the C-terminus of a protein that binds to the PICK1 PDZ domain. For example, the peptide can correspond to the last 13 C-terminal residues of the DAT, of protein kinase Cα or of the GluR2 subunit of the AMPA reaceptor. The peptide can be labeled with any fluorophore. For example it can be labeled with a sulfhydryl-reactive derivative of Oregon Green via a cysteine introduced in the peptide. The peptide is used in a concentration of about 40 nM. The final concentration of the compounds in the initial screen is 100 μM. After approximately 15 min of incubation at […] the plates are analyzed in a Chameleon plate-reader (HIDEX) in the FP mode using a 488 nm excitation filter and a 535 nm long pass emission filter. Each measurement is an average of 100 flashes and is carried out four times. FP is calculated according to the equation FP=(IV−g*IH)/(IV+g*IH). As negative and positive controls, respectively, pure DMSO and DMSO with unlabeled DAT peptide (20 μM final conc.) are measured in parallel. All compounds are tested twice on separate plates.

[1] = target: T2, interaction between PICK1 and a DAT-peptide fused to GST (Rattus norvegicus, UniProt Q9EP80); experiment: GST-DAT pull-down assay of PICK1; assay type: binding; conditions: PICK1 band on SDS-PAGE compared with control pull-down
T2 construct: The entire coding region of rat PICK1 (residues 2-416); GST (N, cleaved yes); made in house; host or cells: E. coli BL21(DE3) pLysS
Procedure: To verify binding of active compounds identified in the FP screen, a biochemical pulldown assay can be employed.
A fusion between GST and the 24 C-terminal amino acids of the dopamine transporter (GST DAT C24) is expressed in BL21(DE3)pLysS (Novagen) using the pET41a vector (Novagen, Madison, Wis.) and purified as described for PICK1 but without digestion with thrombin.
5 μl dry volume of glutathione-coated sepharose beads (Pharmacia) with bound GST alone or GST DAT C24 are suspended in 200 μl TBS buffer containing as follows [50 mM Tris pH 7.4, 125 mM NaCl, 0.1% TX-100, 1 mM DTT (Sigma) and PICK1 0.5 μM]. The compounds to be tested are added in DMSO to a final concentration of 200 μM (2% DMSO final concentrtaion). The last 11 amino acids of the C-terminus of the GLT1b glutamate transporter (60 μM final) and pure DMSO (2%) can be used as a positive and negative control, respectively.
The samples are incubated at 4° C. under slow rotation for 30 min. The beads are centrifuged at 4000 g for 5 min and subsequently washed in TBS buffer and recentrifuged. The beads containing bound protein are eluted in loading buffer and analyzed by 12% SDS-PAGE and proteins are stained with Gelcode blue stain reagent (Pierce). Active compounds i.e. a blocked pull-down are recognized by a reduced PICK1 band on the SDS-PAGE gel compared to the control pull-down. […]

PICK1 GluR2 interaction = target: T3, PICK1 GluR2 interaction (Rattus norvegicus, UniProt Q9EP80); experiment: FRET between eCFP-GluR2 C29 and eYFP-PICK1 in COS7 cells; assay type: cell-based; conditions: compound added 20 min prior to image acquisition
T3 construct: expressed in transfected cells; host or cells: COS7 cells, transient transfection
Procedure: To determine whether a compound is able to block binding of a PD ligand, such as the c-terminus of the AMPA receptor GluR2 subunit, to the PICK1 PDZ domain in a cellular system a Fluorescent Resonance Energy Transfer (FRET) assay can be employed. PICK1 is fused to eYFP (eYFP-PICK1) and the C-terminal 29 residues of the AMPA receptor subunit GluR2 is fused to eCFP (eCFP-GluR2 C29). As a control for specificity of the FRET signal an alanine is added to the C-terminal 29 residues of GluR2 (eCFP-GluR2 C29+A) to disrupt the PDZ interaction. […]
Fluorescence resonance energy transfer (FRET; see Schmid and Sitte, 2003) is measured with an epi-fluorescence microscope (Carl Zeiss TM210, Germany) using the “three-filter method” according to Xia and Liu (2001). […]
Media are replaced by Krebs-HBS buffer (10 mM HEPES/120 mM NaCl/3 mM KCl/2 mM CaCl2/2 mM MgCl2), and images are taken using a 63× oil objective and a LUDL filter wheel that allows for rapid exchange of filters (less than 100 ms). The system is equipped with the following fluorescence filters: CFP filter (ICFP; exc.: 436 nm, dichr.: 455 nm, em.: 480 nm), YFP filter (IYFP; exc.: 500 nm, dichr.: 515 nm, em.: 535 nm) and FRET filter (IFRET: excitation=436 nm, dichroic mirror=455 nm, emission=535 nm). […] Background fluorescence is subtracted from all images and fluorescence intensity was measured in cytosolic regions in all images. […]

PICK1 = target: T4, PICK1 (Rattus norvegicus, UniProt Q9EP80); experiment: Fluorescence polarization saturation binding of fluorescently labeled peptides to PICK1
T4 construct: The entire coding region of rat PICK1 (residues 2-416); GST (N, cleaved yes); made in house; host or cells: E. coli BL21(DE3) pLysS
From the text: as §1, with “Samples of 10 μl are taken from the protein solution for determination of protein concentration and for analysis by SDS-PAGE. Protein determinations are performed using the BCA Protein Assay Reagent kit (Pierce Biotechnology, Inc, Rockford, Ill.) according to manufactures protocol using bovine serum albumin as standard. Gels are stained with GelCode Blue Stain Reagent (Pierce Biotechnology) in order to inspect size, integrity and purity of the protein (Madsen et al., JBC, 280, 20539-48, 2005).” left out

T1 sequence (Q9EP80 2-416): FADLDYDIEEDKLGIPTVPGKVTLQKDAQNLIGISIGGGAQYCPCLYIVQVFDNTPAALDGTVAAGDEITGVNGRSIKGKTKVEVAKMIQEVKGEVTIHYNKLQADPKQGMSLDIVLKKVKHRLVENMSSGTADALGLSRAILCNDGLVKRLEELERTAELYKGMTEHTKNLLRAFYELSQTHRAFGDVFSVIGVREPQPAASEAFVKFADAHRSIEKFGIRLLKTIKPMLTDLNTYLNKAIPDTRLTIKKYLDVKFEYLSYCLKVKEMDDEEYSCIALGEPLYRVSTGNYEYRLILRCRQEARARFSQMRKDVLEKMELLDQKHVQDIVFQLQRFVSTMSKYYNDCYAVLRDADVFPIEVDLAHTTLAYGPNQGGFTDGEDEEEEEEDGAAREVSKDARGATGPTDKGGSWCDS
T3 sequence (Q9EP80 whole entry): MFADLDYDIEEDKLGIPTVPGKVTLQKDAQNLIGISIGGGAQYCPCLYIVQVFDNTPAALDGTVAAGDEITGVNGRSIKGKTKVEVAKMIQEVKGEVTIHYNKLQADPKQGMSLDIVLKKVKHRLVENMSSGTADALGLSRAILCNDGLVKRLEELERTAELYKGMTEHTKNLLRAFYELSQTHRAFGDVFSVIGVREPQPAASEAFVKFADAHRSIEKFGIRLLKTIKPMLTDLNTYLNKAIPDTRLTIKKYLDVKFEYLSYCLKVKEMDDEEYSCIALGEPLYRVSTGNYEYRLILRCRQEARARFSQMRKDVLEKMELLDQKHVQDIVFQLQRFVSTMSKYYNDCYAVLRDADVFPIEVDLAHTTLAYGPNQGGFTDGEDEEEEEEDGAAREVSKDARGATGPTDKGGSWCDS
T2 sequence (Q9EP80 2-416): as the sequence (Q9EP80 2-416) above
T4 sequence (Q9EP80 2-416): as above

## CC(C)C[C@H](NC(=O)[C@H](Cc1c[nH]c2ccccc12)NC(=O)[C@H](Cc1c[nH]cn1)NC(=O)[C@H](CCCNC(=N)N)NC(=O)[C@H](CC(C)C)NC(=O)[C@@H](NC(=O)[C@H](Cc1ccccc1)NC(=O)[C@H](CCC(N)=O)NC(=O)[C@H](CCCNC(=N)N)NC(=O)[C@@H](NC(=O)[C@@H](N)CCC(=O)O)C(C)C)[C@@H](C)O)C(=O)N[C@@H](CCCCN)C(=O)N[C@H](C(=O)O)C(C)C [DAT peptide, reference compound] (H-EVRQFTLRHWLKV-OH; N-terminus and C-terminus assumed)
PDZ domain of PICK1
  potency in displacing the fluorescently tagged tracer (in words): more than one order of magnitude more potent

## CCOc1cc(Cl)c(Cl)c(C=O)c1O [d, 2,3-Dichloro-5-ethoxy-6-hydroxy-benzaldehyde]
PDZ domain of PICK1
  Ki: 67 µM

## CCOC(=O)NC(=O)/C(C#N)=C\c1ccc(Cl)c(Cl)c1 [j, [(Z)-2-Cyano-3-(3,4-dichlorophenyl)-acryloyl]-carbamic acid ethyl ester]
PDZ domain of PICK1
  Ki: 40 µM
[1]
  pull-down of PICK1 by GST-DAT (in words): inhibition; also recorded: inhibited
PICK1 GluR2 interaction; compared to vehicle (1% DMSO)
  FRET between eYFP-PICK1 and eCFP-GluR2 C29 (in words): specifically reduced; also recorded: significantly reduced
PICK1 GluR2 interaction; specificity control construct
  FRET between eYFP-PICK1 and eCFP-GluR2 C29+A (in words): no effect

## CC(C)(C)c1ccc(O)c(/N=C/c2cc(N=Nc3ccc(Cl)cc3)ccc2O)c1 [q, 4-tert-Butyl-2-{[1-[5-(4-chloro-phenylazo)-2-hydroxy-phenyl]-meth-(E)-ylidene]-amino}-phenol]
PDZ domain of PICK1
  Ki: 19.1 µM

## CCOC(=O)c1ccc(-c2ccc(/C=C3/C(=O)NN(c4ccc(C)c(Cl)c4)C3=O)o2)cc1 [t, 4-{5-[1-(3-Chloro-4-methyl-phenyl)-3,5-dioxo-pyrazolidin-(4Z)-ylidenemethyl]-furan-2-yl}-benzoic acid ethyl ester]
PDZ domain of PICK1
  Ki: 13.7 µM

## O=C1C(=Cc2cc(Br)ccc2OCc2ccccc2)C(=O)c2ccccc21 [v, 2-(2-Benzyloxy-5-bromo-benzylidene)-indan-1,3-dione]
PDZ domain of PICK1
  Ki: 7.7 µM

## O=C1C(=O)c2cc([N+](=O)[O-])ccc2-c2ccccc21 [w, 2-Nitro-phenanthrene-9,10-dione]
PDZ domain of PICK1
  Ki: 4.4 µM

## PKCα peptide: peptide corresponding to the 13 C-terminal residues of PKCα, type I PDZ binding sequence -QSAV (NPQFVHPILQSAV; UniProt P17252 660-672, looked up, fragment)
PICK1
  fold lower apparent affinity than the DAT peptide: ~10 fold

## β2 AR peptide: peptide corresponding to the 13 C-terminal residues of the β2 AR, type I PDZ binding sequence -DSLL; specificity control (SQGRNCSTNDSLL; UniProt P07550 401-413, looked up, fragment) [reference compound]
PDZ domain of PICK1
  potency in displacing the fluorescently tagged tracer (in words): much less potent
PICK1; fluorescently labeled peptide
  apparent affinity (in words): very low apparent affinity
